Calls of active or inactive are those of the source.
Experiments:
[1] = test system: Streptococcus sp. 'group A'; assay: growth inhibition of control SK(-) GAS strain, dose response, counter-screen for streptokinase expression inhibitor project, luminescence, kanamycin, BacTiterGlo, confirmation (AID 1900); assay type: functional, organism-based
Streptococcus [2] = assay: Luminescence Microorganism-Based Dose Response Follow up to Identify Compounds Cytotoxic to Streptococcus. [Related pubchem assays: 1677 (Project Summary), 1915, 1914, 1902 (Retest at Dose), 1900 (Counter Screen), 1662 (Primary HTS)]; assay type: functional, organism-based
Streptokinase A = biological target: T1, Streptokinase A (Streptococcus pyogenes serotype M1, UniProt P10520); assay: S. pyogenes streptokinase expression inhibitors, potency, dose response, plasminogen activation absorbance, OD405 (AID 1914); assay type: functional, Streptococcus pyogenes M1 GAS;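 also: secreted streptokinase activity via plasminogen activation per viability signal from cell pellet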
T1 sequence (P10520 whole entry): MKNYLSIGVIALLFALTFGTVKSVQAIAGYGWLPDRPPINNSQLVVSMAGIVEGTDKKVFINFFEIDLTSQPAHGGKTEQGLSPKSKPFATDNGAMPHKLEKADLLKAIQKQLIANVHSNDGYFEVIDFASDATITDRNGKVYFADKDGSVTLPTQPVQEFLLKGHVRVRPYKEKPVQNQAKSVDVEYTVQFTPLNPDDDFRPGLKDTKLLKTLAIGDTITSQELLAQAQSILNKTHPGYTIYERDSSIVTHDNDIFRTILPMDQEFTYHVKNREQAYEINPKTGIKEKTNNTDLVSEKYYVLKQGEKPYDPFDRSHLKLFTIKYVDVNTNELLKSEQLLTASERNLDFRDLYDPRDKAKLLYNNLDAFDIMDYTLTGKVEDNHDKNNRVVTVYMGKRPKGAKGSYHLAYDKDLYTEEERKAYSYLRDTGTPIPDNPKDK

Streptococcus [3] = assay: Group A Streptococcus viability loss, dose response, counter-screen for streptokinase expression inhibitor project, luminescence, BacTiterGlo (AID 1915); assay type: functional, organism-based;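 also: potency for reduction of bacterial viability or growth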
Beta-galactosidase [4] = biological target: T2, Beta-galactosidase (Escherichia coli, UniProt Q8VNN2); assay: Dose response counterscreen for EBI2 assay utilizing the enzyme, b-galactosidase.; assay type: functional
T2 sequence (Q8VNN2 whole entry): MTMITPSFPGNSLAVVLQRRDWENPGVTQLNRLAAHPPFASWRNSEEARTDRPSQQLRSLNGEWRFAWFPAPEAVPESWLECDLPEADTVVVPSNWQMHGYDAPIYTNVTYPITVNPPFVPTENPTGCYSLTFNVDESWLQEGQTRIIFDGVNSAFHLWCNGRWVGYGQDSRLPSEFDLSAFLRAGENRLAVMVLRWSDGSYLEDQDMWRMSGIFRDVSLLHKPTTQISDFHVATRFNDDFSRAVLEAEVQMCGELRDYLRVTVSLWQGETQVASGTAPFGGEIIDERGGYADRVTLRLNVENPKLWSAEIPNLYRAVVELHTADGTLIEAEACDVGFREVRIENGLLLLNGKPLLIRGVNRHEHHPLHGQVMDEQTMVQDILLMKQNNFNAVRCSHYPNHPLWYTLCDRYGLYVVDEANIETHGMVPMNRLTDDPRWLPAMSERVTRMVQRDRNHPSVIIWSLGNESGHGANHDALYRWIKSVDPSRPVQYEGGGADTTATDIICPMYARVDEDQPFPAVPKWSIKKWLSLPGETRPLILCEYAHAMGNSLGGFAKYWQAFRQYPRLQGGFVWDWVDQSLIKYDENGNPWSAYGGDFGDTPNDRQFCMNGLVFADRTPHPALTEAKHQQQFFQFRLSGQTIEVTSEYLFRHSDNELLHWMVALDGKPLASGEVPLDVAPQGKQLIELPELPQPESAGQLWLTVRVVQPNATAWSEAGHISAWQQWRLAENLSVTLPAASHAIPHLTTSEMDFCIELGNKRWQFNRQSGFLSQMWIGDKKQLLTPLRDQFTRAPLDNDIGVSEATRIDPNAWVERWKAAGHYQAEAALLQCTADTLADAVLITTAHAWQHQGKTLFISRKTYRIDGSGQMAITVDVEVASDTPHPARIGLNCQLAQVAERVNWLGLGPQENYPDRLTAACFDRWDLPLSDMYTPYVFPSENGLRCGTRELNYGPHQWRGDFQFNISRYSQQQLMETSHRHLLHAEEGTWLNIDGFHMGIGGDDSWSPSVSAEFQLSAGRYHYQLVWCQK

[5] = biological target: Lysosomal acid glucosylceramidase (Homo sapiens, UniProt P04062); assay: Dose response cell-based high throughput screening assay to identify enhancers of beta-glucosidase activity. [Related pubchem assays: 784 ]; assay type: functional
Chain of Lysosomal acid glucosylceramidase (P04062 whole entry): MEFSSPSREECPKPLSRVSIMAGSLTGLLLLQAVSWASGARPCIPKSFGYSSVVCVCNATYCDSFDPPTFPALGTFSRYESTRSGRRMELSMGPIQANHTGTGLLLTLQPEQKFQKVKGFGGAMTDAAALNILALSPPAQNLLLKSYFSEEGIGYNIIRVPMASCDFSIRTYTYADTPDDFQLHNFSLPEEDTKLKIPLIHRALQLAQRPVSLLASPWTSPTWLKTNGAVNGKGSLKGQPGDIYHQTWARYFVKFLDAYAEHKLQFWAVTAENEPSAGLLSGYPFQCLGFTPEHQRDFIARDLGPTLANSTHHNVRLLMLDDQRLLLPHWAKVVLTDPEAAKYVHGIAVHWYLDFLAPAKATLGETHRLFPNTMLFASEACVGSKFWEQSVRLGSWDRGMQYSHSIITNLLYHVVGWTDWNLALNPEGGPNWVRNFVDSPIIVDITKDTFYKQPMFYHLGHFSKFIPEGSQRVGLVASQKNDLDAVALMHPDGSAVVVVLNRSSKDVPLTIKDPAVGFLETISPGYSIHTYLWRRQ

[6] = biological target: T3, Eukaryotic translation initiation factor 2-alpha kinase 3 (Homo sapiens, UniProt Q9NZJ5); assay: Dose response cell-based high-throughput screening assay to measure PERK inhibition. [Related pubchem assays: 1416 ]; assay type: functional
T3 sequence (Q9NZJ5 whole entry): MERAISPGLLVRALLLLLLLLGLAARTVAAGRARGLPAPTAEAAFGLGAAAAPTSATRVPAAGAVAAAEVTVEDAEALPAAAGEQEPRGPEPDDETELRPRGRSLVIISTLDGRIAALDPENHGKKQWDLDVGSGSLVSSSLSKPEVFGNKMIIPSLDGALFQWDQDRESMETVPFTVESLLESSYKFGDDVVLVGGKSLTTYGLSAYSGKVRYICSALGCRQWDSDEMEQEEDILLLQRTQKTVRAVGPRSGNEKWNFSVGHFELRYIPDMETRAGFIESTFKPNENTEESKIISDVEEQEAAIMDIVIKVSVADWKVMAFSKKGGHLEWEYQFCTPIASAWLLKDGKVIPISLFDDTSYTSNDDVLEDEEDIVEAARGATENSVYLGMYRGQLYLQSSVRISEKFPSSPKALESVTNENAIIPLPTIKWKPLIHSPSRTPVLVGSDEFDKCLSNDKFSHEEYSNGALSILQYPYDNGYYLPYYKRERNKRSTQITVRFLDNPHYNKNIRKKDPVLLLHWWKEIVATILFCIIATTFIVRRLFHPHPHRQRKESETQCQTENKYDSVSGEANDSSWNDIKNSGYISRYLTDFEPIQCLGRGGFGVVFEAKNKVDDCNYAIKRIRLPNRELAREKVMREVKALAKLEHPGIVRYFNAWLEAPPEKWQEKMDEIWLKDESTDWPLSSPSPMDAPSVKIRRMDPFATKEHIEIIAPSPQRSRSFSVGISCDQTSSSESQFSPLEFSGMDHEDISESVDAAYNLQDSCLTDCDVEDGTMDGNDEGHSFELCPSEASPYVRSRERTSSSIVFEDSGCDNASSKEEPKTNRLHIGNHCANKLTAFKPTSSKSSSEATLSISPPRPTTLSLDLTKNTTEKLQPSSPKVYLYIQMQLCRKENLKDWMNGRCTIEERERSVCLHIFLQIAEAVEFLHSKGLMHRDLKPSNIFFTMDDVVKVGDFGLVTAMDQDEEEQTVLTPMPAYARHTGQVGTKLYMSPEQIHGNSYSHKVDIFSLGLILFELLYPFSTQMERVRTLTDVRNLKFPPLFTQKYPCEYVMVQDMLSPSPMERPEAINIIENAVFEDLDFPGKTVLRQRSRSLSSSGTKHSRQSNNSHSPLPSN

[7] = biological target: T3, Eukaryotic translation initiation factor 2-alpha kinase 3; assay: Counterscreen assay for PERK inhibitors: Dose response cell-based high throughput screening assay to measure inhibition of PERK at 6 hours. [Related pubchem assays: 1522, 1416 ]; assay type: functional
[8] = biological target: T4, Neuropeptides B/W receptor type 1 (Homo sapiens, UniProt P48145); assay: Fluorescence-based dose response cell-based high throughput screening assay to identify antagonists of the G-protein coupled receptor 7 (GPR7). [Related pubchem assays: 1952 (Screening assay (GPR7 antagonists).), 1880 (Summary AID.)]; assay type: functional
T4 sequence (P48145 whole entry): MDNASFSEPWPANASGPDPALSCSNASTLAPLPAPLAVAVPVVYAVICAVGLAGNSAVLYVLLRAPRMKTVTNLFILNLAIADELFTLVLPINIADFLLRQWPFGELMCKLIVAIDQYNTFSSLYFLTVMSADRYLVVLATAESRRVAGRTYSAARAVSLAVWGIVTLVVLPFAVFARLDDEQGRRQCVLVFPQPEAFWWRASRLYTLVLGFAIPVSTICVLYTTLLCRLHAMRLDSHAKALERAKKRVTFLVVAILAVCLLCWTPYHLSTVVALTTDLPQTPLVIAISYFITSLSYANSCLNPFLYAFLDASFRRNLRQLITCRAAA

[9] = biological target: Melanin-concentrating hormone receptor 1 (Homo sapiens, UniProt Q99705); assay: Fluorescence-based counterscreen for antagonists of the G-protein coupled receptor 7 (GPR7): cell-based high throughput dose response assay to identify antagonists of the melanin-concentrating hormone receptor 1 (MCHR1).; assay type: functional
[10] = biological target: C-C chemokine receptor type 6 (Homo sapiens, UniProt P51684); assay: CCR6 receptor antagonists, dose response, cell-based, luminescent beta-arrestin readout (AID 504728); assay type: functional
Chain of C-C chemokine receptor type 6 (P51684 whole entry): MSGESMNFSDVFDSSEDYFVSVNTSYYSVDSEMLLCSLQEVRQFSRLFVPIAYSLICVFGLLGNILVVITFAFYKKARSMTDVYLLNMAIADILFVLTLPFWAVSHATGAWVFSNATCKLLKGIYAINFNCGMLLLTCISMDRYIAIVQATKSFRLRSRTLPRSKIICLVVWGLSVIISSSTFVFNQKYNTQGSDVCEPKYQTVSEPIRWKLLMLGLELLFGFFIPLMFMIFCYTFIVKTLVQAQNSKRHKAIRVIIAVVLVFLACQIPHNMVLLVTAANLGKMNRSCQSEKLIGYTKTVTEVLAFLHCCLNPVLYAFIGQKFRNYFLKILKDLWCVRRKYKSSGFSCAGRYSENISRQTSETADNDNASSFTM

Beta-galactosidase [11] = biological target: T2, Beta-galactosidase; assay: beta-galactosidase enzyme inhibitors and activators, dose response, artefact control for CCR6 antagonist project, biochemical, E. coli enzyme, set 3 (AID 504712); assay type: functional
Vero = Vero cell cytotoxicity, cytotoxicity control for flavivirus capping enzyme inhibitors (AID 588742); assay type: functional; settings: Chlorocebus sabaeus
Genome polyprotein = Genome polyprotein (dengue virus type 2, UniProt P29990); assay: Dengue-2 NS5 methyltransferase inhibitors, primary screen, biochemical, confirmation dose response (AID 588689); assay type: functional
[12] = Shn3 3'UTR reporter inhibitors, dose response, cell-based, Clone20 osteoblasts, firefly luciferase, cherry-picked (AID 624132); assay type: functional;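 also: firefly luciferase luminescence from reporter carrying the Shn3 3'UTR in osteoblasts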
[13] = HepG2 cell cytotoxicity, dose response, cytotoxicity control for Shn3 inhibitor project, CellTiter-Glo, cherry-picked (AID 624134); assay type: functional, cell-based
[14] = control 3'UTR Renilla luciferase suppression, dose response, counter-screen for Shn3 inhibitor project, cell-based, Clone20-Shn3RL, cherry-picked (AID 624133); assay type: functional
Fatty acid synthase [15] = biological target: T5, Fatty acid synthase (Homo sapiens, UniProt P49327); assay: FAS thioesterase domain inhibitors, dose response, biochemical, endpoint fluorescence intensity, uHTS hits (AID 624327); assay type: functional;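 also: fluorescence from hydrolysis of an O-methyl fluorescein acyl ester substrate by the enzyme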
[16] = HeLa cell cytotoxicity, dose response, cytotoxicity control for MgcRacGAP inhibitor project (AID 624300); assay type: functional
[17] = biological target: T6, Rac GTPase-activating protein 1 (Homo sapiens, UniProt Q9H0H5); assay: MgcRacGAP GTPase-activating activity inhibitors, confirmation, biochemical, ADP Hunter fluorescence, primary and confirmatory (AID 624330); assay type: functional
T6 sequence (Q9H0H5 whole entry): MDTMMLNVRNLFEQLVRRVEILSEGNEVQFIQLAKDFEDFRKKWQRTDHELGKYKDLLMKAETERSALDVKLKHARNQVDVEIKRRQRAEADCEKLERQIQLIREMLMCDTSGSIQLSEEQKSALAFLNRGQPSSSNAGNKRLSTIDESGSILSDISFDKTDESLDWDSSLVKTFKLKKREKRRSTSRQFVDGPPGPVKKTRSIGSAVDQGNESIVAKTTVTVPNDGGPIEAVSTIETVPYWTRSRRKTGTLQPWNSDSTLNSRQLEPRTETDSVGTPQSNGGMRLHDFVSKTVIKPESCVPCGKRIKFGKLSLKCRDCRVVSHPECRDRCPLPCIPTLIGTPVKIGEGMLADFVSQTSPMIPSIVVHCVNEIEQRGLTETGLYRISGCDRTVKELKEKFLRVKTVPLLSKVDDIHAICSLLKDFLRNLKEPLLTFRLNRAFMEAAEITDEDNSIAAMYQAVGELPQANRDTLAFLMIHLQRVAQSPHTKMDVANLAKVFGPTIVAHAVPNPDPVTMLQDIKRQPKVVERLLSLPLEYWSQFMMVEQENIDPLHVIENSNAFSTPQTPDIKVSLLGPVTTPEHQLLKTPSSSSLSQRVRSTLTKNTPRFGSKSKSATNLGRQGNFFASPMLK

Fatty acid synthase [18] = biological target: T5, Fatty acid synthase; assay: FAS thioesterase domain inhibitors, dose response, biochemical, kinetic fluorescence intensity (AID 624326); assay type: functional;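 also: rate of fluorescence rise from hydrolysis of a fluorogenic O-methyl fluorescein ester substrate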
[19] = biological target: T7, Voltage-gated N-type calcium channel alpha-1B subunit/Amyloid beta A4 precursor protein-binding family A member 1 (Homo sapiens, UniProt Q00975+Q02410); assay: disruptors of Mint-PDZ/N-type channel peptide interaction – biochemical, HTRF, set 2, SAR follow-up (AID 434980); assay type: functional
T7 sequence (Q00975 whole entry): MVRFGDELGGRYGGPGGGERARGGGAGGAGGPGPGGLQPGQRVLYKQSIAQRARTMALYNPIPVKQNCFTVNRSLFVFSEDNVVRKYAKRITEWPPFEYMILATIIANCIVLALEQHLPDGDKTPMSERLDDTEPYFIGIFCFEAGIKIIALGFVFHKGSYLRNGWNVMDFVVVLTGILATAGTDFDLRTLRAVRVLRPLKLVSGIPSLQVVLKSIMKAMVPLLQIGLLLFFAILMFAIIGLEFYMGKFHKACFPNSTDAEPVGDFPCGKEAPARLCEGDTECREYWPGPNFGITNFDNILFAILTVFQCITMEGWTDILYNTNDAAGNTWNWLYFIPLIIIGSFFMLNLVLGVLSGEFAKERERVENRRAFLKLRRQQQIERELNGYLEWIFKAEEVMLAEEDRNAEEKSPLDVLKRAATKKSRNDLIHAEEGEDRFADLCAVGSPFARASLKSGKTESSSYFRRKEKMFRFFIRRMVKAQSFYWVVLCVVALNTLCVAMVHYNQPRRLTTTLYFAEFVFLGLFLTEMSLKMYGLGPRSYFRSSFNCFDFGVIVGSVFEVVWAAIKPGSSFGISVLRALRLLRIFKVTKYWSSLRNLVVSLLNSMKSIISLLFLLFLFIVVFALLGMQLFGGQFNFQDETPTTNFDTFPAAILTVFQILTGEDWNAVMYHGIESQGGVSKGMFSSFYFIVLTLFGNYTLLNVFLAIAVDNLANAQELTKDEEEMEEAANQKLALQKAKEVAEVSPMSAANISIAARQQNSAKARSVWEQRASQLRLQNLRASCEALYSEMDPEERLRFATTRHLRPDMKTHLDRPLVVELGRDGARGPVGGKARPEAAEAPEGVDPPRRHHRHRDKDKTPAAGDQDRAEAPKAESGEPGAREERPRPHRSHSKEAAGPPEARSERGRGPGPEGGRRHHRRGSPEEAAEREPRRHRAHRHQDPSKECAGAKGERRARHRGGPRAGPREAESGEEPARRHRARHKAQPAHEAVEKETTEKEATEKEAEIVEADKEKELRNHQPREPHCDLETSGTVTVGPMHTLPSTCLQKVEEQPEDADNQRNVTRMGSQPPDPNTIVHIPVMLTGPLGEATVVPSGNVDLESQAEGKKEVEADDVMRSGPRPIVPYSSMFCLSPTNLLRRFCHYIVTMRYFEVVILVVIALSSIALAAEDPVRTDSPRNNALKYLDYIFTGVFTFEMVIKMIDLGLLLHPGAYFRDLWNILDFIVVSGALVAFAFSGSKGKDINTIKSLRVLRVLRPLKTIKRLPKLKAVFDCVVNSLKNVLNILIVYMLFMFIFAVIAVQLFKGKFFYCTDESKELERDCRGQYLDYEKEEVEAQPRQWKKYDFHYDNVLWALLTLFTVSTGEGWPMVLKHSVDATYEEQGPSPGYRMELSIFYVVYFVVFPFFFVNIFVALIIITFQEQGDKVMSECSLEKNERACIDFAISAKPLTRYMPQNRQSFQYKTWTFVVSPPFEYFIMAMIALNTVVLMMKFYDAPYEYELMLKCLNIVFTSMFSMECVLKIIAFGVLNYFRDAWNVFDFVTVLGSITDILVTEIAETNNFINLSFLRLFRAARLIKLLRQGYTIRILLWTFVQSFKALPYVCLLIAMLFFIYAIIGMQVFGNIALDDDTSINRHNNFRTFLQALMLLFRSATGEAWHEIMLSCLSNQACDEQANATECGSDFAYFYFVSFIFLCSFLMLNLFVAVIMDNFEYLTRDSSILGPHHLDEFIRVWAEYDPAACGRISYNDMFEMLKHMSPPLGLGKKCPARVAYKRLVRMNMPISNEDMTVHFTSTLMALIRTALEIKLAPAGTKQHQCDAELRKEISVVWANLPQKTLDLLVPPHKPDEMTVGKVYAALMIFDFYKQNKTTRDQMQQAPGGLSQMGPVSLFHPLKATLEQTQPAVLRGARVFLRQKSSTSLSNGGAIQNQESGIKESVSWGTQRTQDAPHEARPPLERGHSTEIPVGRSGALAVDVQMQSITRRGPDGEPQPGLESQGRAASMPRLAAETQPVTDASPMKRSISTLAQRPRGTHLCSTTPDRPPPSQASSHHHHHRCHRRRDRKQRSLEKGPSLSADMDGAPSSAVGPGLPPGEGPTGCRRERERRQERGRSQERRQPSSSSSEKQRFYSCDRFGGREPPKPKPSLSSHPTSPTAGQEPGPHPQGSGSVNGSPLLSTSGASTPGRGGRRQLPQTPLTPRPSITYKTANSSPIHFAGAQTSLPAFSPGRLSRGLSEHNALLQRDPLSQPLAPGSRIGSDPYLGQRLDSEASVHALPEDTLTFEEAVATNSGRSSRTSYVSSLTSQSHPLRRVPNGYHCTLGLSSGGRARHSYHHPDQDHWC
T7 sequence (Q02410 whole entry): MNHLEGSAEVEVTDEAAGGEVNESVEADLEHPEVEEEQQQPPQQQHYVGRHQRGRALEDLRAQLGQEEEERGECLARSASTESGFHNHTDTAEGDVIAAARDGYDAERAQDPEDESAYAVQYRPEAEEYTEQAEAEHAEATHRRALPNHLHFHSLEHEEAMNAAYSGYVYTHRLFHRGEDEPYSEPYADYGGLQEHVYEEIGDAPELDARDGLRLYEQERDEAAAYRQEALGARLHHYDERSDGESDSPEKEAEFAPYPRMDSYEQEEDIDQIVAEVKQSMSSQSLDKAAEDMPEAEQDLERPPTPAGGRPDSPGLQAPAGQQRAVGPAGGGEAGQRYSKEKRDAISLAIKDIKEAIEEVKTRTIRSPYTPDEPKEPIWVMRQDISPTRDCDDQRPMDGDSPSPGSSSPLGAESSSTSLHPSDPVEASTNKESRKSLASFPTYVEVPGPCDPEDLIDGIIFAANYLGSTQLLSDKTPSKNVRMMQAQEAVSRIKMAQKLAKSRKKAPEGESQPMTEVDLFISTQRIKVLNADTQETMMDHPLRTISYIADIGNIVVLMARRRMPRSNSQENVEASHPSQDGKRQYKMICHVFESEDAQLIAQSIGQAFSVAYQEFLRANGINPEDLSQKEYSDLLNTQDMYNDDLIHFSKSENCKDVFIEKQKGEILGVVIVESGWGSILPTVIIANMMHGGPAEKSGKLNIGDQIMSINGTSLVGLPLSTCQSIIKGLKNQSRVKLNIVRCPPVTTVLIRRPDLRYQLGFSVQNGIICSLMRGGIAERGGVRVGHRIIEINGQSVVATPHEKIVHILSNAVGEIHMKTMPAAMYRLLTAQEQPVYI

[20] = biological target: T7, Voltage-gated N-type calcium channel alpha-1B subunit/Amyloid beta A4 precursor protein-binding family A member 1; assay: disruptors of Mint-PDZ/N-type channel peptide interaction – biochemical, HTRF, SAR follow-up (AID 2489); assay type: functional
[21] = biological target: Metabotropic glutamate receptor 4 (Rattus norvegicus, UniProt P31423); assay: Modulation of the Metabotropic Glutamate Receptor mGluR4: Rat PAM Potency. [Related pubchem assays (depositor defined):AID2437, AID2807]; assay type: functional
[22] = biological target: FAD-linked sulfhydryl oxidase ALR (Homo sapiens, UniProt P55789); assay: inhibitors of human ALR sulfhydryl oxidase, dose response, biochemical, H2O2 detection, luminescence, cherry-pick (AID 493248)

COc1ccc2oc(C(=O)N3CCN(C(c4ccccc4)c4ccccc4)CC3)c(C)c2c1
EC50 [1]: 32.2 µM (active)
EC50 (Streptococcus [2]): > 500 µM (not active)
EC50 (Streptokinase A): 4.97 µM (active)
EC50 (Streptococcus [3]): > 150 µM (not active)
IC50 (Beta-galactosidase [4]): > 80 µM (inactive)

O=C(CCCn1c(=S)[nH]c2cc3c(cc2c1=O)OCO3)N1CCN(c2ncccn2)CC1
EC50 [5]: > 50 µM (not active)

CC(C)(C)NC(=O)CSc1nnc(-c2ccco2)n1Cc1ccco1
EC50 [5]: > 50 µM (not active)

Cc1cc2oc(=O)cc(CN(C)Cc3ccccc3)c2cc1C(C)C
EC50 [1]: 13.3 µM (active)
EC50 (Streptococcus [2]): > 500 µM (not active)
EC50 (Streptokinase A): 8.46 µM (active)
EC50 (Streptococcus [3]): > 150 µM (not active)

Cc1ccc(NC(=O)COC(=O)CCc2c[nH]c(O)n2)cc1
EC50 [6]: > 55.7 µM (not active)
EC50 [7]: > 55.7 µM (not active)

O=C(NC1CCCCCCC1)C1c2ccccc2C(=O)N1Cc1ccco1 (centres undefined)
IC50 [8]: > 43.8 µM (not active)
IC50 [9]: > 43.8 µM (not active)

CC1(C)CC[C@]2(C(=O)n3ccnc3)CC[C@]3(C)[C@H](C(=O)C=C4[C@@]5(C)C=C(C#N)C(=O)C(C)(C)[C@@H]5CC[C@]43C)[C@@H]2C1
IC50 [10]: 11.5 µM (active)
IC50 (Beta-galactosidase [11]): > 66.6 µM (inactive)
CC50 (Vero): < 0.63 µM (active)
IC50 (Genome polyprotein): 38.2 µM (active)
AC50 [12]: < 0.26 µM (active)
AC50 [13]: 5.13 µM (active)
AC50 [14]: 0.376 µM (active)
IC50 (Fatty acid synthase [15]): 2.85 µM (active)
CC50 [16]: 5.19 µM (active)
IC50 [17]: 20.7 µM (active)
IC50 (Fatty acid synthase [18]): 1.77 µM (active)

O=C(c1cc(-c2ccco2)nc2ccccc12)N1CCCCC1Cc1ccccc1 (centres undefined)
IC50 [19]: > 56.8 µM (inactive)
IC50 [20]: > 56.8 µM (inactive)

O=C(Nc1ccc(N2C(=O)[C@@H]3[C@H](C2=O)[C@H]2C=C[C@@H]3CC2)c(Cl)c1)c1ccccn1
EC50 [21]: 0.25 µM (active)

CC(=O)c1ccc(N/N=C2/CCCNC2=O)cc1
EC50 [6]: > 55.7 µM (not active)
EC50 [7]: > 55.7 µM (not active)
AC50 [22]: 3.67 µM (active)

C=CCS/C(N)=N\N=C\c1cc(Br)cc([N+](=O)[O-])c1O
IC50 [10]: > 66.6 µM (inactive)
IC50 (Beta-galactosidase [11]): > 66.6 µM (inactive)

From ChEMBL document CHEMBL1201862, “PubChem BioAssay data set” (2004)
